Calls of active or inactive are those of the source.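 Rule for the calls: active = AC50, the dose giving half-maximal effect, exceeds a fixed cutoff for a compound that rescues yeast growth under heat; inactive = the rest, inconclusive results apart.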 A value given as a limit tells only on which side of the number the result lay.

The subject of this experiment is S. cerevisiae Burl-1 ts mutant growth, BacTiter-Glo, 38.5C 24 h. Briefly: restored growth of temperature-sensitive Burl-1 yeast – whole organism, S. cerevisiae, Burl-1 ts mutant, luminescence, counter-screen for SUMOylation pathway inhibitor project, dose response (AID 463199).
As a reminder, the AC50 is the concentration at which the activity in the assay is half-maximal. For the compound `CC1CN(CCCOc2ccc([N+](=O)[O-])cc2)CC(C)O1` (stereo not drawn), the AC50 was > 42 µM (inactive).
On to `CCn1cc(CCCC(=O)NCc2ccccc2OC)c2ccccc21`, for which the AC50 was > 42 µM (inactive).
As for `Cc1ccc(-c2nnc(SCC#N)n2N)cc1`, the figure is > 42 µM (inactive); as for `CCOC(=O)CSc1cc(C)nc2ccc(OC)cc12`, > 42 µM (inactive); as for `NN1C(=O)NC(c2ccccc2)(c2ccccc2)C1=O`, > 42 µM (inactive).
Turning to `O=C(CC1(CC2=NS(=O)(=O)c3ccccc3N2)CCCC1)NCCc1ccccc1`, the AC50 is > 42 µM (inactive).
As to `CCOC(=O)c1sc(NC(=O)CSc2n[nH]c(-c3ccccc3)n2)c(C#N)c1C`, the AC50 is > 42 µM (inactive).
On to `O=c1[nH]c(CN2CCN(CCO)CC2)nc2ccccc12`, for which the AC50 is > 42 µM (inactive).
To `CCCN1CCN(CCCNC(=O)CCn2nc(-c3ccccc3)ccc2=O)CC1` belongs > 42 µM (inactive); to `Cc1c(NC(=O)c2cc(-c3ccccc3O)on2)c(=O)n(-c2ccccc2)n1C`, > 42 µM (inactive); to `CC(=O)N/C(=C\c1ccccc1)C(=O)OCC(=O)c1ccccc1`, > 42 µM (inactive).
To `CCC(C)(C)n1nnnc1C(c1ccc(OC)c(OC)c1)N1CCN(c2cccc(OC)c2)CC1` (stereo not drawn) belongs > 42 µM (inactive); to `CC1(C)CC(=O)C(CC2CCCCC2=O)C(=O)C1` (stereo not drawn), > 42 µM (inactive).
In the case of `O=C(OCc1ccccc1)c1cccc(-c2nnn(Cc3ccccc3)n2)c1`, the AC50 is > 42 µM (inactive).
`Cc1nn(CCOc2ccccc2)c(=O)n1-c1ccccc1F`: the AC50 is > 42 µM (inactive).
`C=CCOc1ccccc1CN1CCCC(CCC(=O)N(C)CCc2ccccn2)C1` (stereo not drawn): the AC50 is > 21 µM (inactive).
For the compound `O=Cc1ccc(Oc2cccc(C(F)(F)F)c2)nc1`, the AC50 is > 42 µM (inactive).
Take `COc1cc(NC(=O)c2cc(Cl)ccc2Cl)ccc1-c1cc2ccccc2oc1=O`: the AC50 is > 42 µM (inactive).
Consider `CCOc1ccc(S(=O)(=O)N2CCN(CC(O)COc3cccc([N+](=O)[O-])c3)CC2)cc1` (stereo not drawn), for which the AC50 is > 42 µM (inactive).
To `COc1ccccc1OCCCn1cc(C#N)c2ccccc21` belongs > 42 µM (inactive).
As for `CC1C(=O)CC(c2ccccc2)NC1c1ccccc1` (stereo not drawn), the figure is > 42 µM (inactive).
As for `C=CSc1sc(Cl)c(N(C)C)c1[N+](=O)[O-]`, the AC50 is > 42 µM (inactive).
As to `COc1ccccc1-n1nnnc1SCC(=O)Nc1ccc(C)c(N)c1`, the AC50 was > 42 µM (inactive).
On to `N=c1n(CCCOc2ccc(Br)cc2)c2ccccc2n1CC(N)=O`, for which the AC50 was > 42 µM (inactive).
As for `CSc1cc(C)c(OCC(=O)Nc2c(C)nn(C)c2C)c(C)c1`, the figure is > 42 µM (inactive); as for `O=c1[nH]c(O)c(N=Nc2cc([N+](=O)[O-])ccc2O)c(=O)[nH]1`, > 42 µM (inactive); as for `Cc1cc(N2CCN(C)CC2)nc2ccc(NC(=S)N3CCC4(CC3)OCCO4)cc12`, > 42 µM (inactive).
In the case of `CCCOc1ccc([N+](=O)[O-])c(N)c1`, the AC50 is > 42 µM (inactive).
Regarding `CC1=C(C#N)S(=O)(=O)C(C#N)C(c2ccccc2)C1` (stereo not drawn), the AC50 was > 42 µM (inactive).
As for `Cc1ccc2nc(/C(C#N)=C\c3cc(O)ccc3[N+](=O)[O-])[nH]c2c1`, the AC50 was > 42 µM (inactive).
For `Cc1cc(C(=O)COc2cccc3cccnc23)c(C)n1C`, the AC50 was > 42 µM (inactive).
To `CCOC(=O)C1CCCN(C(=O)c2cc(-c3ccc(F)cc3)nc3ccccc23)C1` (stereo not drawn) belongs > 42 µM (inactive); to `O=C(CCCNC(=O)/C(=C/c1ccccc1F)NC(=O)c1ccccc1)OCc1ccccc1`, > 42 µM (inactive).
As to `O=C(COc1ccccc1)Nc1ccc(OC(F)(F)C(F)F)c(NC(=O)COc2ccccc2)c1`, the AC50 is > 42 µM (inactive).
`CN(CC(=O)N1CCc2[nH]c3ccc(F)cc3c2C1)CC1OCCO1`: the AC50 was > 42 µM (inactive).
As to `Cc1ccc(C)n1-n1cnc2sc3c(c2c1=O)CCCCC3`, the AC50 is > 42 µM (inactive).
As to `Nc1nnc(COc2ccc(Br)cc2Br)s1`, the AC50 was > 42 µM (inactive).
In the case of `CC(C)c1ccc(C2C(C(=O)c3ccco3)=C(O)C(=O)N2CCN2CCOCC2)cc1` (stereo not drawn), the AC50 is > 42 µM (inactive).
On to `Clc1ccc(N=c2ssnc2Cl)nc1`, for which the AC50 was > 42 µM (inactive).
With `CN(C)c1ccnc2sc3c(NCC(O)CO)ncnc3c12` (stereo not drawn), the AC50 is > 42 µM (inactive).
For the compound `CCN(CC)CCCN(Cc1cc2cc(OC)ccc2[nH]c1=O)C(=O)Nc1ccc(F)cc1`, the AC50 was > 42 µM (inactive).
With `COc1cccc(NC(=O)CN(C)C(=O)c2ccccc2OCc2c(C)noc2C)c1`, the AC50 is > 42 µM (inactive).
On to `Cc1ccc(CNC(=O)CCNS(=O)(=O)c2cccs2)cc1`, for which the AC50 was > 42 µM (inactive).
On to `COc1ccc(CN2CC(=O)N(c3ccccc3C)C2=S)cc1OC`, for which the AC50 was > 42 µM (inactive).
For `O=S(=O)(NCc1ccc(Cl)cc1)c1cnc[nH]1`, the AC50 was > 42 µM (inactive).
With `Cc1nc(C)n(CC(=O)N2CCCC(C(=O)c3cccc4ccccc34)C2)n1` (stereo not drawn), the AC50 is > 42 µM (inactive).
Consider `Cc1ccc(S(=O)(=O)NCC(=O)OCC(=O)c2ccc(Br)s2)cc1`, for which the AC50 was > 42 µM (inactive).
Turning to `O=C(Nc1ccc(F)cc1F)N1CCCN(c2ccc(C(F)(F)F)cn2)CC1`, the AC50 is > 42 µM (inactive).
On to `CCOC(=O)C(C)(C)Sc1nc2c(cnn2-c2ccc(C)cc2)c(=O)[nH]1`, for which the AC50 is > 42 µM (inactive).
For `CCOC(=O)c1cccc(NC(=O)C2CCCN(S(=O)(=O)c3c(C)n[nH]c3C)C2)c1` (stereo not drawn), the AC50 was > 42 µM (inactive).
With `C[C@@]12C(=O)Nc3ccc(Br)cc3C(=O)N1[C@H]1c3ccccc3OC[C@@H]1[C@@H]2c1ccccc1`, the AC50 was > 42 µM (inactive).
`O=C(Nc1ccc2c(c1)CCCN2C(=O)c1cccs1)c1cccc(F)c1`: the AC50 is > 42 µM (inactive).
On to `Cc1cccc(OCCC(=O)Nc2ccc(F)c(F)c2)c1`, for which the AC50 is > 42 µM (inactive).
Consider `NS(=O)(=O)c1ccc(CCNC(=O)CN2CCN(c3ccc(F)cc3)CC2)cc1`, for which the AC50 was > 42 µM (inactive).
Regarding `CCOc1c(P(=S)(N(C)C)N(C)C)c(C)nn1-c1ccccc1`, the AC50 was > 42 µM (inactive).
Take `Cc1ccc(N(CC(=O)Nc2cccc(C)c2)S(=O)(=O)c2cccc3nonc23)cc1`: the AC50 was > 21 µM (inactive).
To `Cc1nc2ccc(NC(=O)c3ccc(S(=O)(=O)N4CCOCC4)cc3)cc2s1` belongs > 42 µM (inactive); to `Cc1ccc(S(=O)(=O)NCC(C)n2cncn2)cc1` (stereo not drawn), > 42 µM (inactive).
Turning to `CC1=NC2(CCCc3c2no[n+]3[O-])N(O)C1(C)C` (stereo not drawn), the AC50 was > 42 µM (inactive).
For the compound `CN1C(=O)/C(=C/c2ccc(OCc3ccccc3F)cc2)NC1=S`, the AC50 was > 42 µM (inactive).
With `CC(C)(C)n1nnnc1C(c1ccc(Cl)cc1)N(Cc1cccnc1)Cc1ccco1` (stereo not drawn), the AC50 is > 42 µM (inactive).
In the case of `Cc1ccccc1-c1nnnn1C1CCS(=O)(=O)C1` (stereo not drawn), the AC50 was > 42 µM (inactive).
`C(=N\Nc1ccc2nncn2n1)/c1ccccn1`: the AC50 was > 42 µM (inactive).

The values are drawn from PubChem BioAssay AID463199 (Broad Institute, 2010).
